± gives the uncertainty stated by the source.
Assay: xn = mol fraction of the nth substance listed

CCCCCl + CCC(C)O
viscosity [mPa·s], 101 kPa
Conditions	x1 = 0.0997	x1 = 0.1976	x1 = 0.3052	x1 = 0.4049	x1 = 0.497	x1 = 0.606	x1 = 0.7022	x1 = 0.8053	x1 = 0.9038
298.15 K	1.98 ± 0.02	1.379 ± 0.014	1.015 ± 0.01	0.8086 ± 0.0078	0.6823 ± 0.0065	0.5809 ± 0.0055	0.5176 ± 0.005	0.469 ± 0.005	0.4366 ± 0.0042
313.15 K	1.234 ± 0.015	0.9264 ± 0.01	0.7261 ± 0.0076	0.6063 ± 0.0062	0.5279 ± 0.0053	0.4628 ± 0.0047	0.4198 ± 0.0042	0.3877 ± 0.0039	0.3663 ± 0.0037

CCCNCCC + CCC(C)O
303.15 K, 101 kPa
Conditions	viscosity [mPa·s]
x1 = 0.009464	2.442 ± 0.016
x1 = 0.02067	2.411 ± 0.016
x1 = 0.03223	2.381 ± 0.016
x1 = 0.04172	2.358 ± 0.016
x1 = 0.04996	2.336 ± 0.015
x1 = 0.05928	2.313 ± 0.015
x1 = 0.07049	2.286 ± 0.015
x1 = 0.08687	2.251 ± 0.015
x1 = 0.09038	2.238 ± 0.015

CCCCCCCCCl + CCCCC
298 K, 101.3 kPa
Conditions	viscosity [mPa·s]
x2 = 0.1047	0.9664 ± 0.025
x2 = 0.2064	0.8559 ± 0.023
x2 = 0.3057	0.7414 ± 0.02
x2 = 0.4042	0.6389 ± 0.017
x2 = 0.5005	0.5441 ± 0.014
x2 = 0.6018	0.4631 ± 0.012
x2 = 0.7019	0.3926 ± 0.01
x2 = 0.8048	0.324 ± 0.0087
x2 = 0.8982	0.2747 ± 0.0075

C1=CCCCC1 + CCCCCC
303.15 K, 101 kPa
Conditions	viscosity [mPa·s]
x1 = 0.1718	0.348 ± 0.005
x1 = 0.2792	0.365 ± 0.005
x1 = 0.3914	0.387 ± 0.005
x1 = 0.5249	0.418 ± 0.006
x1 = 0.5946	0.438 ± 0.006
x1 = 0.6859	0.464 ± 0.006
x1 = 0.8067	0.503 ± 0.007
x1 = 0.9032	0.536 ± 0.007

CC1CCCCC1 + CCCCCC
viscosity [mPa·s], 101 kPa
Conditions	293.15 K	298.15 K	303.15 K	308.15 K
x1 = 0.0401	0.3176 ± 0.0035	0.3005 ± 0.0034	0.2736 ± 0.0032	–
x1 = 0.1041	–	–	0.3003 ± 0.003	–
x1 = 0.1042	–	0.334 ± 0.007	0.318 ± 0.007	0.301 ± 0.006
x1 = 0.2002	0.3482 ± 0.0038	0.3336 ± 0.0037	0.3072 ± 0.0035	–
x1 = 0.202	–	–	0.3216 ± 0.0031	–
x1 = 0.2026	–	0.359 ± 0.007	0.341 ± 0.007	0.323 ± 0.007
x1 = 0.2772	0.3681 ± 0.004	0.3511 ± 0.0039	0.3256 ± 0.0037	–
x1 = 0.3005	–	–	0.3476 ± 0.0032	–
x1 = 0.301	–	0.373 ± 0.008	0.354 ± 0.007	0.335 ± 0.007
x1 = 0.3562	0.3915 ± 0.0042	0.3713 ± 0.0041	0.3477 ± 0.0039	–
x1 = 0.3972	–	–	0.375 ± 0.0033	–
x1 = 0.4018	–	0.401 ± 0.008	0.378 ± 0.008	0.359 ± 0.007
x1 = 0.4196	0.4131 ± 0.0045	0.3895 ± 0.0043	0.3654 ± 0.0041	–
x1 = 0.5015	–	–	0.4074 ± 0.0034	–
x1 = 0.5026	–	0.433 ± 0.008	0.41 ± 0.008	0.387 ± 0.008
x1 = 0.5574	–	–	0.4286 ± 0.0035	–
x1 = 0.5875	0.4812 ± 0.0053	0.4512 ± 0.005	0.4227 ± 0.0048	–
x1 = 0.6024	–	0.473 ± 0.009	0.446 ± 0.009	0.42 ± 0.008
x1 = 0.6173	–	–	0.4495 ± 0.0036	–
x1 = 0.6796	0.5261 ± 0.0059	0.49 ± 0.0055	0.46 ± 0.0053	–
x1 = 0.7021	–	0.517 ± 0.01	0.487 ± 0.009	0.457 ± 0.009
x1 = 0.7645	0.5729 ± 0.0065	0.5323 ± 0.0061	0.5001 ± 0.0058	–
x1 = 0.8006	–	–	0.5303 ± 0.0039	–
x1 = 0.8016	–	0.573 ± 0.01	0.539 ± 0.01	0.504 ± 0.01
x1 = 0.8397	0.6187 ± 0.0071	0.5725 ± 0.0067	0.5388 ± 0.0063	–
x1 = 0.9002	–	–	0.5837 ± 0.0041	–
x1 = 0.9011	–	0.624 ± 0.011	0.585 ± 0.011	0.545 ± 0.01
x1 = 0.9198	0.6688 ± 0.0078	0.6221 ± 0.0073	0.5865 ± 0.007	–

CCOC(=O)c1ccccc1 + CCCCCC
101 kPa
Conditions	viscosity [mPa·s]
298.15 K, x2 = 0.0271	1.845 ± 0.058
298.15 K, x2 = 0.1115	1.528 ± 0.048
298.15 K, x2 = 0.1588	1.375 ± 0.043
298.15 K, x2 = 0.2058	1.242 ± 0.039
298.15 K, x2 = 0.3029	1.008 ± 0.032
298.15 K, x2 = 0.3991	0.828 ± 0.026
298.15 K, x2 = 0.4898	0.688 ± 0.022
298.15 K, x2 = 0.5921	0.57 ± 0.018
298.15 K, x2 = 0.6377	0.527 ± 0.017
298.15 K, x2 = 0.6782	0.491 ± 0.016
298.15 K, x2 = 0.7316	0.456 ± 0.015
298.15 K, x2 = 0.773	0.426 ± 0.014
298.15 K, x2 = 0.8227	0.394 ± 0.013
298.15 K, x2 = 0.8654	0.371 ± 0.012
298.15 K, x2 = 0.9101	0.354 ± 0.011
298.15 K, x2 = 0.9517	0.341 ± 0.011
303.15 K, x1 = 0.0927	0.329 ± 0.007
303.15 K, x1 = 0.1853	0.38 ± 0.008
303.15 K, x1 = 0.2811	0.448 ± 0.01
303.15 K, x1 = 0.3781	0.531 ± 0.011
303.15 K, x1 = 0.4761	0.634 ± 0.013
303.15 K, x1 = 0.5765	0.764 ± 0.016
303.15 K, x1 = 0.6794	0.93 ± 0.019
303.15 K, x1 = 0.7852	1.147 ± 0.024
303.15 K, x1 = 0.8902	1.41 ± 0.029
308.15 K, x1 = 0.0927	0.315 ± 0.007
308.15 K, x1 = 0.1853	0.366 ± 0.008
308.15 K, x1 = 0.2811	0.429 ± 0.009
308.15 K, x1 = 0.3781	0.508 ± 0.011
308.15 K, x1 = 0.4761	0.603 ± 0.013
308.15 K, x1 = 0.5765	0.72 ± 0.015
308.15 K, x1 = 0.6794	0.877 ± 0.018
308.15 K, x1 = 0.7852	1.065 ± 0.022
308.15 K, x1 = 0.8902	1.303 ± 0.027
308.15 K, x2 = 0.0828	1.413 ± 0.044
308.15 K, x2 = 0.1328	1.29 ± 0.04
308.15 K, x2 = 0.171	1.201 ± 0.038
308.15 K, x2 = 0.2301	1.074 ± 0.034
308.15 K, x2 = 0.2802	0.973 ± 0.031
308.15 K, x2 = 0.3274	0.887 ± 0.028
308.15 K, x2 = 0.3722	0.812 ± 0.026
308.15 K, x2 = 0.4224	0.741 ± 0.023
308.15 K, x2 = 0.4708	0.677 ± 0.021
308.15 K, x2 = 0.5165	0.624 ± 0.02
308.15 K, x2 = 0.5609	0.576 ± 0.018
308.15 K, x2 = 0.6066	0.533 ± 0.017
308.15 K, x2 = 0.6587	0.489 ± 0.016
308.15 K, x2 = 0.7033	0.457 ± 0.015
308.15 K, x2 = 0.7489	0.426 ± 0.014
308.15 K, x2 = 0.7953	0.397 ± 0.013
308.15 K, x2 = 0.8419	0.372 ± 0.012
308.15 K, x2 = 0.8794	0.356 ± 0.011
308.15 K, x2 = 0.9354	0.331 ± 0.011
313.15 K, x1 = 0.0927	0.295 ± 0.006
313.15 K, x1 = 0.1853	0.346 ± 0.007
313.15 K, x1 = 0.2811	0.406 ± 0.009
313.15 K, x1 = 0.3781	0.476 ± 0.01
313.15 K, x1 = 0.4761	0.562 ± 0.012
313.15 K, x1 = 0.5765	0.673 ± 0.014
313.15 K, x1 = 0.6794	0.815 ± 0.017
313.15 K, x1 = 0.7852	0.99 ± 0.021
313.15 K, x1 = 0.8902	1.2 ± 0.025
318.15 K, x2 = 0.0471	1.244 ± 0.039
318.15 K, x2 = 0.1005	1.133 ± 0.035
318.15 K, x2 = 0.149	1.036 ± 0.032
318.15 K, x2 = 0.2038	0.939 ± 0.029
318.15 K, x2 = 0.252	0.861 ± 0.027
318.15 K, x2 = 0.3057	0.781 ± 0.025
318.15 K, x2 = 0.352	0.718 ± 0.023
318.15 K, x2 = 0.4057	0.652 ± 0.021
318.15 K, x2 = 0.4516	0.602 ± 0.019
318.15 K, x2 = 0.5027	0.55 ± 0.017
318.15 K, x2 = 0.5475	0.51 ± 0.016
318.15 K, x2 = 0.5991	0.47 ± 0.015
318.15 K, x2 = 0.6439	0.439 ± 0.014
318.15 K, x2 = 0.6933	0.41 ± 0.013
318.15 K, x2 = 0.7382	0.387 ± 0.012
318.15 K, x2 = 0.7869	0.364 ± 0.012
318.15 K, x2 = 0.8296	0.346 ± 0.011
318.15 K, x2 = 0.878	0.327 ± 0.011

Cc1cccc([N+](=O)[O-])c1 + CCCCCC
303.15 K, 101.33 kPa
Conditions	viscosity [mPa·s]
x1 = 0.199	0.38 ± 0.008
x1 = 0.416	0.58 ± 0.01
x1 = 0.591	0.77 ± 0.011
x1 = 0.802	1.11 ± 0.013

Reference: the CheMixHub viscosity set
